Data published in the supplement of paper PMC10883282.

Key:
Experiment in all cases: relative viability vs DMSO control (72 h) (fraction); higher = more viable cells
HT1080 = tested on: HT1080
Summary of the method: (§1)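 Plates held 72 h at 37 °C and 5% CO2 contained sarcoma cell lines seeded in 384-well format to reach 80–90% confluence, plus 2.5 µl of serially diluted compound added after 24 h. Source plate concentrations ran from 10 mM to 0.0002 mM, with 0.1% DMSO as vehicle and a 5 µM positive control. Percent growth from ATPLite readings, averaged over up to triplicate wells, gave relative viability. Values were rescaled with 1 as full and 0 as none.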

SW872 = tested on: SW872
Summary of the method: as §1

SW1353 = tested on: SW1353
Summary of the method: as §1

KHOS-NP = tested on: KHOS-NP
Summary of the method: as §1

RD-ES = tested on: RD-ES
Summary of the method: as §1

MES-SA = tested on: MES-SA
Summary of the method: as §1

SK-ES-1 = tested on: SK-ES-1
Summary of the method: as §1

SW684 = tested on: SW684
Summary of the method: as §1

SK-LMS-1 = tested on: SK-LMS-1
Summary of the method: as §1

G401 = tested on: G401
Summary of the method: as §1

VA-ES-BJ = tested on: VA-ES-BJ
Summary of the method: as §1

RD = tested on: RD
Summary of the method: as §1

Cc1ccc(C(=O)OCc2ccc([C@@H](CN)C(=O)Nc3ccc4cnccc4c3)cc2)c(C)c1 [Netarsudil]
Settings | relative viability
G401, 0.00017 µM | 0.956
G401, 0.00051 µM | 0.985
G401, 0.00152 µM | 0.977
G401, 0.00457 µM | 0.996
G401, 0.01372 µM | 0.9802
G401, 0.04115 µM | 0.957
G401, 0.1235 µM | 0.968
G401, 0.3704 µM | 0.973
G401, 1.111 µM | 0.941
G401, 3.333 µM | 0.946
G401, 10 µM | 0.00503
HT1080, 0.00017 µM | 1.03
HT1080, 0.00051 µM | 1.02
HT1080, 0.00152 µM | 1.043
HT1080, 0.00457 µM | 0.994
HT1080, 0.01372 µM | 1.03
HT1080, 0.04115 µM | 1.01
HT1080, 0.1235 µM | 1.03
HT1080, 0.3704 µM | 1.04
HT1080, 1.111 µM | 1.03
HT1080, 3.333 µM | 1.02
HT1080, 10 µM | 0.0118
KHOS-NP, 0.00017 µM | 1.03
KHOS-NP, 0.00051 µM | 1.06
KHOS-NP, 0.00152 µM | 1.03
KHOS-NP, 0.00457 µM | 1.05
KHOS-NP, 0.01372 µM | 1.03
KHOS-NP, 0.04115 µM | 1.03
KHOS-NP, 0.1235 µM | 1
KHOS-NP, 0.3704 µM | 0.997
KHOS-NP, 1.111 µM | 0.968
KHOS-NP, 3.333 µM | 0.986
KHOS-NP, 10 µM | 0.0142
MES-SA, 0.00017 µM | 0.89
MES-SA, 0.00051 µM | 0.901
MES-SA, 0.00152 µM | 0.892
MES-SA, 0.00457 µM | 0.905
MES-SA, 0.01372 µM | 0.921
MES-SA, 0.04115 µM | 0.884
MES-SA, 0.1235 µM | 0.85
MES-SA, 0.3704 µM | 0.775
MES-SA, 1.111 µM | 0.672
MES-SA, 3.333 µM | 0.402
MES-SA, 10 µM | 0.00233
RD, 0.00017 µM | 1.09
RD, 0.00051 µM | 1.1
RD, 0.00152 µM | 1.12
RD, 0.00457 µM | 1.11
RD, 0.01372 µM | 1.1
RD, 0.04115 µM | 1.14
RD, 0.1235 µM | 1.13
RD, 0.3704 µM | 1.15
RD, 1.111 µM | 1.15
RD, 3.333 µM | 0.976
RD, 10 µM | 0.0128
RD-ES, 0.00017 µM | 0.995
RD-ES, 0.00051 µM | 0.98
RD-ES, 0.00152 µM | 0.971
RD-ES, 0.00457 µM | 0.9831
RD-ES, 0.01372 µM | 0.976
RD-ES, 0.04115 µM | 1.02
RD-ES, 0.1235 µM | 1.015
RD-ES, 0.3704 µM | 1.035
RD-ES, 1.111 µM | 1.01
RD-ES, 3.333 µM | 0.677
RD-ES, 10 µM | 0.0137
SK-ES-1, 0.00017 µM | 1.01
SK-ES-1, 0.00051 µM | 0.999
SK-ES-1, 0.00152 µM | 1.04
SK-ES-1, 0.00457 µM | 1.04
SK-ES-1, 0.01372 µM | 1.03
SK-ES-1, 0.04115 µM | 1.04
SK-ES-1, 0.1235 µM | 1.03
SK-ES-1, 0.3704 µM | 1.04
SK-ES-1, 1.111 µM | 1.04
SK-ES-1, 3.333 µM | 0.761
SK-ES-1, 10 µM | 0.0124
SK-LMS-1, 0.00017 µM | 1.03
SK-LMS-1, 0.00051 µM | 1.05
SK-LMS-1, 0.00152 µM | 1.02
SK-LMS-1, 0.00457 µM | 1
SK-LMS-1, 0.01372 µM | 1.043
SK-LMS-1, 0.04115 µM | 1.03
SK-LMS-1, 0.1235 µM | 1.07
SK-LMS-1, 0.3704 µM | 0.989
SK-LMS-1, 1.111 µM | 0.799
SK-LMS-1, 3.333 µM | 0.574
SK-LMS-1, 10 µM | 0.0101
SW684, 0.00017 µM | 1.12
SW684, 0.00051 µM | 1.1
SW684, 0.00152 µM | 1.11
SW684, 0.00457 µM | 1.11
SW684, 0.01372 µM | 1.09
SW684, 0.04115 µM | 1.076
SW684, 0.1235 µM | 0.991
SW684, 0.3704 µM | 0.8806
SW684, 1.111 µM | 0.884
SW684, 3.333 µM | 0.805
SW684, 10 µM | -0.0136
SW872, 0.00017 µM | 0.997
SW872, 0.00051 µM | 1.01
SW872, 0.00152 µM | 1.01
SW872, 0.00457 µM | 0.988
SW872, 0.01372 µM | 1.01
SW872, 0.04115 µM | 0.955
SW872, 0.1235 µM | 0.961
SW872, 0.3704 µM | 0.82
SW872, 1.111 µM | 0.74
SW872, 3.333 µM | 0.637
SW872, 10 µM | 0.000233
SW1353, 0.00017 µM | 0.939
SW1353, 0.00051 µM | 0.945
SW1353, 0.00152 µM | 0.946
SW1353, 0.00457 µM | 0.944
SW1353, 0.01372 µM | 0.926
SW1353, 0.04115 µM | 0.946
SW1353, 0.1235 µM | 0.898
SW1353, 0.3704 µM | 0.7532
SW1353, 1.111 µM | 0.628
SW1353, 3.333 µM | 0.553
SW1353, 10 µM | 0.0095
VA-ES-BJ, 0.00017 µM | 1.02
VA-ES-BJ, 0.00051 µM | 1
VA-ES-BJ, 0.00152 µM | 0.998
VA-ES-BJ, 0.00457 µM | 1.02
VA-ES-BJ, 0.01372 µM | 1.01
VA-ES-BJ, 0.04115 µM | 0.991
VA-ES-BJ, 0.1235 µM | 0.99
VA-ES-BJ, 0.3704 µM | 0.998
VA-ES-BJ, 1.111 µM | 1.03
VA-ES-BJ, 3.333 µM | 1.03
VA-ES-BJ, 10 µM | 0.659
